Laboratory results published in ChEMBL document CHEMBL5518230, “Identification of a Novel Selective CDK9 Inhibitor for the Treatment of CRC: Design, Synthesis, and Biological Activity Evaluation” (J Med Chem, 2024).
Calls of active or inactive are those of the source. No cut-off for these calls is given here.

Tests used:
[1] = Toxicity in BALB/c mouse xenografted with human HCT-116 cells assessed as spleen morphological change at 50 mg/kg,po administrated once daily for 3 weeks by hematoxylin and eosin staining based microscopic analysis; type: organism-based; details: in vivo, 504 h
[2] = Half life in Sprague-Dawley rat at 2 mg/kg,iv administration measured for 0.25 to 24 hrs by LC-MS/MS analysis; type: ADME, organism-based; details: in vivo, time 0.25-24 hrs
[3] = biological target: Cyclin-dependent kinase 1 (Homo sapiens, UniProt P06493); assay: Inhibition of CDK1 (unknown origin)
[4] = Stability in human liver microsomes assessed as compound remaining at 100 uM measured upto 60 mins in presence of NADPH by LC-MS/MS analysis; type: ADME, Microsome; details: read-out: Stability
[5] = Toxicity in BALB/c mouse xenografted with human HCT-116 cells assessed as kidney morphological change at 50 mg/kg,po administrated once daily for 3 weeks by hematoxylin and eosin staining based microscopic analysis; type: organism-based; details: in vivo, 504 h
[6] = biological target: T1, Cyclin-dependent kinase 9 (Homo sapiens, UniProt P50750); assay: Inhibition of CDK9 (unknown origin)
[7] = biological target: Interleukin-1 receptor-associated kinase 1 (Homo sapiens) (UniProt P51617); assay: Inhibition of human IRAK1 at 100 nM by kinase profiling assay relative to control
[8] = biological target: Cyclin-dependent kinase 7 (Homo sapiens, UniProt P50613); assay: Inhibition of CDK7 (unknown origin)
[9] = Half life in human plasma measured upto 120 mins by LC-MS/MS analysis; type: ADME, cell-free
[10] = Growth inhibition of human CCC-HIE-2 cells incubated for 48 hrs by CCK-8 assay; type: toxicity, cell-based
[11] = Intrinsic microsomal clearance in human liver microsomes at 100 uM measured upto 60 mins in presence of NADPH by LC-MS/MS analysis; type: ADME, Microsome; details: read-out: CLH
[12] = test system: HCT-116; assay: Induction of apoptosis in human HCT-116 cells assessed as downregulation of […] mRNA expression at 25 to 400 nM incubated for 48 hrs by qRT-PCR analysis; type: functional, cell-based; details: dose 25-400 nM
[13] = AUC (0 to infinity) in Sprague-Dawley rat at 10 mg/kg,po administration measured for 0.25 to 24 hrs by LC-MS/MS analysis; type: ADME, organism-based; details: in vivo, time 0.25-24 hrs
[14] = test system: HCT-116; assay: Antitumor activity against human HCT-116 cells xenografted in BALB/c mouse assessed as downregulation of RNA polymerase II phosphorylation at 25 mg/kg,po administrated once daily for 3 weeks by Western blotting analysis; type: functional, organism-based
[15] = biological target: T2, CYP1A2 (Homo sapiens, UniProt P05177); assay: Inhibition of CYP1A2 in human liver microsomes using alpha-naphthoflavone as […] at 10 uM preincubated for 10 mins followed by NADPH addition measured after 15 mins by LC-MS/MS analysis relative to control; type: ADME, Microsome; details: time 25 min
T2 sequence (P05177 whole entry): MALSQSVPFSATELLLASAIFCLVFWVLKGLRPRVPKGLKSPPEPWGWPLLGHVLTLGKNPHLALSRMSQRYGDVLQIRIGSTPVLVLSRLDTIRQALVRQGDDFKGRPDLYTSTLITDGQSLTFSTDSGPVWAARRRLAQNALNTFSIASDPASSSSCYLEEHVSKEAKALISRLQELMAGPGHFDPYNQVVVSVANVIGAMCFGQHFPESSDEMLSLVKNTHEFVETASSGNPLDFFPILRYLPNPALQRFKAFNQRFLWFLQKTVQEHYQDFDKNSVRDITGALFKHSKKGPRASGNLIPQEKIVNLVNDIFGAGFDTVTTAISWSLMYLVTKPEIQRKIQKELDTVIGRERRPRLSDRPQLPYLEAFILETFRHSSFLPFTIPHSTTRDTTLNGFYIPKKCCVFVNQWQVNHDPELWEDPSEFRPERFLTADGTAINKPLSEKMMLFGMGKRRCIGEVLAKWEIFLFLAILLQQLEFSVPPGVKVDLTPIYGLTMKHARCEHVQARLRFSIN

[16] = test system: HCT-116; assay: Induction of apoptosis in human HCT-116 cells assessed as increase in early apoptotic cells incubated for 48 hrs by Annexin V-FITC/PI staining based flow cytometric analysis; type: functional, cell-based
[17] = Selectivity index, ratio of GI50 for growth inhibition of human SW480 cells to GI50 for growth inhibition of human HCT-116 cells; type: functional
[18] = test system: HCT-116; assay: Induction of apoptosis in human HCT-116 cells assessed as increase in red fluorescence emission by TUNEL staining fluorescence microscopic analysis; type: functional, cell-based
[19] = Toxicity in BALB/c mouse xenografted with human HCT-116 cells assessed as body weight loss at 25 mg/kg,po administrated once daily for 3 weeks; type: organism-based; details: in vivo, 504 h
[20] = biological target: TGF-beta receptor type-2 (Homo sapiens) (UniProt P37173); assay: Inhibition of human TGFbetaR2 at 100 nM by kinase profiling assay relative to control
[21] = C0 in Sprague-Dawley rat at 2 mg/kg,iv administration measured for 0.25 to 24 hrs by LC-MS/MS analysis; type: ADME, organism-based; details: in vivo, time 0.25-24 hrs
[22] = Selectivity index, ratio of GI50 for growth inhibition of human CCC-HIE-2 cells to GI50 for growth inhibition of human HCT-116 cells
[23] = biological target: T1, Cyclin-dependent kinase 9; assay: Inhibition of human CDK9 at 100 nM by kinase profiling assay relative to control
[24] = biological target: Inhibitor of nuclear factor kappa-B kinase subunit alpha (Homo sapiens) (UniProt O15111); assay: Inhibition of human IKKalpha at 100 nM by kinase profiling assay relative to control
[25] = Tmax in Sprague-Dawley rat at 10 mg/kg,po administration measured for 0.25 to 24 hrs by LC-MS/MS analysis; type: ADME, organism-based; details: in vivo, time 0.25-24 hrs
[26] = Half life in human liver microsomes at 100 uM measured upto 60 mins in presence of NADPH by LC-MS/MS analysis; type: ADME, Microsome
[27] = biological target: Cyclin-dependent kinase 2 (Homo sapiens, UniProt P24941); assay: Inhibition of CDK2 (unknown origin)
[28] = Toxicity in BALB/c mouse xenografted with human HCT-116 cells assessed as liver morphological change at 50 mg/kg,po administrated once daily for 3 weeks by hematoxylin and eosin staining based microscopic analysis; type: organism-based; details: in vivo, 504 h
[29] = biological target: Cyclin-dependent kinase 4 (Homo sapiens, UniProt P11802); assay: Inhibition of CDK4 (unknown origin)
[30] = test system: HT-29; assay: Growth inhibition of human HT-29 cells incubated for 48 hrs by CCK-8 assay; type: functional
[31] = MRT (0 to infinity) in Sprague-Dawley rat at 10 mg/kg,po administration measured for 0.25 to 24 hrs by LC-MS/MS analysis; type: ADME, organism-based; details: in vivo, time 0.25-24 hrs
[32] = MRT (0 to t) in Sprague-Dawley rat at 2 mg/kg,iv administration measured for 0.25 to 24 hrs by LC-MS/MS analysis; type: ADME, organism-based; details: in vivo, time 0.25-24 hrs
[33] = Clearance in Sprague-Dawley rat at 2 mg/kg,iv administration measured for 0.25 to 24 hrs by LC-MS/MS analysis; type: ADME, organism-based; details: in vivo, time 0.25-24 hrs
[34] = test system: HCT-116; assay: Induction of apoptosis in human HCT-116 cells assessed as increase in caspase-3 activity incubated for 48 hrs by GreenNuc substrate based flow cytometric analysis; type: functional, cell-based

T1 sequence (P50750 whole entry): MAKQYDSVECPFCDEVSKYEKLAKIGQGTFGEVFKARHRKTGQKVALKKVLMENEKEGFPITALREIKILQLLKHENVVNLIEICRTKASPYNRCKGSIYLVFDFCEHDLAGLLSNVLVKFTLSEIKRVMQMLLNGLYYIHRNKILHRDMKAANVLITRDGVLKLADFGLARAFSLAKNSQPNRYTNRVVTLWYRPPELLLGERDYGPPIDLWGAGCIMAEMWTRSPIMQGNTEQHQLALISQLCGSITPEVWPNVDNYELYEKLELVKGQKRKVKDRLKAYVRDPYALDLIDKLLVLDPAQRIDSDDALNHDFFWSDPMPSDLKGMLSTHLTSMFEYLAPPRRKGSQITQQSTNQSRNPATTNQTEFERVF
Chain of Inhibitor of nuclear factor kappa-B kinase subunit alpha (Homo sapiens) (O15111 whole entry): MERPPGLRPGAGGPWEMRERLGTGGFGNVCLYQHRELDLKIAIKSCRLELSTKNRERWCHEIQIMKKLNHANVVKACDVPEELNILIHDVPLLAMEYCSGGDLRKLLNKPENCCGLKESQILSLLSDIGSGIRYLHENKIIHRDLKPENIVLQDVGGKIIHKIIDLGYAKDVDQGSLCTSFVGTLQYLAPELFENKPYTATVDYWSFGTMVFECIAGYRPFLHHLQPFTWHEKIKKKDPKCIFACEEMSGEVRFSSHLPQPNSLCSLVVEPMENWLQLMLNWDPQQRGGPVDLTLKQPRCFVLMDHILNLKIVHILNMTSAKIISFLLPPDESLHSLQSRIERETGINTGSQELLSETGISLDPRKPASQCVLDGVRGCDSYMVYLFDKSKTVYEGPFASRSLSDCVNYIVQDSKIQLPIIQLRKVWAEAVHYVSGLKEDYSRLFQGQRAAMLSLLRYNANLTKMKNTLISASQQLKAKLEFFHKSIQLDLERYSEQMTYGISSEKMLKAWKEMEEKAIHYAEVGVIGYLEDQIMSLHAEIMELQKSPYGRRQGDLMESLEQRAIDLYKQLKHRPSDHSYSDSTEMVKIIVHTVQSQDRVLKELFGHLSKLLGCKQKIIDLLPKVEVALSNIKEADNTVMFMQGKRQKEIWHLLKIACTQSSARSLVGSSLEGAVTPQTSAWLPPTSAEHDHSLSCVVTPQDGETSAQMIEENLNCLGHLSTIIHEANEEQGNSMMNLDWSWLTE
Chain of TGF-beta receptor type-2 (Homo sapiens) (P37173 whole entry): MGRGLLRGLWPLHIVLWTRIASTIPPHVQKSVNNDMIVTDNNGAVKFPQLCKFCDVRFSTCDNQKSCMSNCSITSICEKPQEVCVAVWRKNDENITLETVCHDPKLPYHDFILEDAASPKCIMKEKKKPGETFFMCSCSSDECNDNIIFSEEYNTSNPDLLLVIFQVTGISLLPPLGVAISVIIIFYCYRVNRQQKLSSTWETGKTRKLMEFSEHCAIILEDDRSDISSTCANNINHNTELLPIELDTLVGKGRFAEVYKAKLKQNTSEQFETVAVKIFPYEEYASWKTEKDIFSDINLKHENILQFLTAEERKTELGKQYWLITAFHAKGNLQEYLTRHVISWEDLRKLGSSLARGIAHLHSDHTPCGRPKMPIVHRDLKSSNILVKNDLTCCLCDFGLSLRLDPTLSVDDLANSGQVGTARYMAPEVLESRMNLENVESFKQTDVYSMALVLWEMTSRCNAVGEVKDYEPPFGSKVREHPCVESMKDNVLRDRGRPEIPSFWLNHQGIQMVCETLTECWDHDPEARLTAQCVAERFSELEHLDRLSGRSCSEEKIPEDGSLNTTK
Chain of Cyclin-dependent kinase 4 (P11802 whole entry): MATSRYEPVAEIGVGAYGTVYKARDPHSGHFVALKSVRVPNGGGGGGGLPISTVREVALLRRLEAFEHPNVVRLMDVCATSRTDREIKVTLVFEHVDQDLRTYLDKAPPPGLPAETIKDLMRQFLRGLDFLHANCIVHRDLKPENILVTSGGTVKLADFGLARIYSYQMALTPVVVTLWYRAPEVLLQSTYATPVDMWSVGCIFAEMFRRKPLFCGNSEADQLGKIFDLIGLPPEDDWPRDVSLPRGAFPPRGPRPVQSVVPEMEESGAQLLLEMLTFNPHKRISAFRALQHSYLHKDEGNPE
Chain of Cyclin-dependent kinase 7 (P50613 whole entry): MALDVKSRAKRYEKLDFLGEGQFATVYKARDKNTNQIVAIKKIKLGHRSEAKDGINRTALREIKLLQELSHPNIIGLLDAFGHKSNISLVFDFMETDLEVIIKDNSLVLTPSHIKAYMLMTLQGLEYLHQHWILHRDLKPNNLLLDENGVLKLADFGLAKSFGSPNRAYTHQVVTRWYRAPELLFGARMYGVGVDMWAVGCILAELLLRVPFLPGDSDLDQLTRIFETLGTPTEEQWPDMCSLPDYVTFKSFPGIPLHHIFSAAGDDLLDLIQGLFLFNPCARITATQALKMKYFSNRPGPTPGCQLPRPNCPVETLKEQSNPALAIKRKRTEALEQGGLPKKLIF
Chain of Interleukin-1 receptor-associated kinase 1 (Homo sapiens) (P51617 whole entry, looked up): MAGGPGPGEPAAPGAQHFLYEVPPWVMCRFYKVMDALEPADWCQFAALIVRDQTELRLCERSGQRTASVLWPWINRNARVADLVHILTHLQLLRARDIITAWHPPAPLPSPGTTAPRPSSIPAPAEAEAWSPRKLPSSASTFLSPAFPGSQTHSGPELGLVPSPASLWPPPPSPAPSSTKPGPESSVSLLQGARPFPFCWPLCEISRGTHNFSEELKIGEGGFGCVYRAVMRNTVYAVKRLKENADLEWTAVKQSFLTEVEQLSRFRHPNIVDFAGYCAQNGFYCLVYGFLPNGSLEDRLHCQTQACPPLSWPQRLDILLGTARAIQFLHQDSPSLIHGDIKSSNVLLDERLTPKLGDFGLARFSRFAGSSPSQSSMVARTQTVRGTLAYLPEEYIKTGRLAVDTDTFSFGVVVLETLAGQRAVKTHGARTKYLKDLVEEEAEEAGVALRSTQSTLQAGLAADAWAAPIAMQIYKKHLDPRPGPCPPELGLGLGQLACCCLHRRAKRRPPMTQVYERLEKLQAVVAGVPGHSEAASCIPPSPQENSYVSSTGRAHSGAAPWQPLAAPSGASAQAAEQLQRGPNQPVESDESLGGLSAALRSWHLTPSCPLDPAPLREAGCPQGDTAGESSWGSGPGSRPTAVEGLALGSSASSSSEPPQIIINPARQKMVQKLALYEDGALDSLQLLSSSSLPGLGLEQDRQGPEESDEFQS
Chain of Cyclin-dependent kinase 1 (P06493 whole entry): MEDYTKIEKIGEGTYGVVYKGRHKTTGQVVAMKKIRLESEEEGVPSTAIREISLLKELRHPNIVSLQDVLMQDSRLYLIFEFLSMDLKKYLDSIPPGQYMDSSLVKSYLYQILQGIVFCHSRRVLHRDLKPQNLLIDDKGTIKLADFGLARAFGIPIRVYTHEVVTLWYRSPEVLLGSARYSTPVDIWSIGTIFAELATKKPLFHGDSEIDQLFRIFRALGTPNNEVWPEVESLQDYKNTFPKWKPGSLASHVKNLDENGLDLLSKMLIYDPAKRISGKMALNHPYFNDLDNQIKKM

## CC(C)n1nnc2ccc(-c3ccnc(Nc4cc(C(=O)N5CCCN(C)CC5)ccn4)c3)cc21
[1]
  Activity: Non-Toxic
[2]
  half-life: 1.7 h
[3]
  IC50: 439 nM
[4]
  remaining at 1 h, 100 µM: 19.6%
[5]
  Activity: Non-Toxic
[6]
  IC50: 2.9 nM
[7]
  inhibition: < 50%
[8]
  IC50: > 500 nM
[9]
  half-life: > 4.82 h
[10]
  GI50 at 48 h: 9510 nM
[11]
  microsomal CLint at 100 µM: 55.1 µL/min/mg
[12]
  Activity: Active
[13]
  AUC(0-inf): 199 ng·h/mL
[14]
  Activity: Active
[15]
  inhibition at 0.25 h, 10 µM: 34.6%
[16]
  Activity: Dose-Dependent Effect
[17]
  RatioGI50: 92.97
[18]
  Activity: Dose-Dependent Effect
[19]
  Activity: Non-Toxic
[20]
  inhibition: < 50%
[21]
  C0: 459 ng/mL
[22]
  RatioGI50: 173.46
[23]
  inhibition: > 90%
[24]
  inhibition: < 50%
[25]
  Tmax: 0.5 h
[26]
  half-life at 100 µM: 0.42 h
[27]
  IC50: > 500 nM
[28]
  Activity: Non-Toxic
[29]
  IC50: > 500 nM
[30]
  GI50: 560 nM
[31]
  MRT inf: 7.02 h
[32]
  MRT last: 1.48 h
[33]
  clearance: 89.8 mL/min/kg
[34]
  Activity: Dose-Dependent Effect
